# Reference: patent publication US20230364096A1, “USE OF A COMBINATION COMPRISING A BTK INHIBITOR FOR TREATING CANCERS” (BEIGENE SWITZERLAND GMBH, priority 2016, published 2023)
# Tests used:
# [1] = system: TMD-8 DLBCL xenograft; test: Human TMD-8 DLBCL xenograft model; format: in vivo, mice; details: for Tumor growth inhibition (TGI): day 46, Compound 1 7.5 mg/kg p.o. BID, obinutuzumab 10 mg/kg i.p. QW
# Method: (§1) TMD-8 DLBCL cells were cultured in RPMI1640 complete medium supplemented with 10% (v/v) fetal bovine serum, and 100 µg/mL of penicillin and streptomycin. On the day of implantation, culture medium was replaced with fresh medium. Four hours later, media was removed and cells were collected as described above. Cells were re-suspended in cold (4° C.) PBS and same volume of matrigel was added to give a final concentration of 5×10^7 cells/mL for TMD-8 cells. Re-suspended cells were placed on ice prior to inoculation. The right flank region of each mouse was cleaned with 75% ethanol prior to cell inoculation. Animals were then injected subcutaneously with 1×10^7 TMD-8 cells in 200 µl of cell suspension in the right front flank via a 26-gauge needle.
# On day 7 after inoculation, animals were randomly divided into 4 groups with 10 mice per group. […] Treatments were administered in a volume of 10 mL/kg body weight, assessed immediately before dosing and the volume dosed was adjusted accordingly. Compound 1 was administered by oral gavage (p.o.) twice daily (BID) and obinutuzumab was administered by intraperitoneal (i.p.) injection once every week (QW). After implantation, primary tumor volume was measured in two dimensions using a calliper.
# (§2) Mice were euthanized using carbon dioxide when their tumor volume reached 2,500 mm^3 after twice measurements, the tumor was ulcerated, or body weight loss exceeded 20%.
# (§3) Tumor volume was calculated using the formula: V = 0.5 × (a × b^2) where a and b are the long and short diameters of the tumor, respectively. Tumor growth inhibition (TGI) was calculated using the following formula:
# (§4) • treated t = treated tumor volume at time t • placebo t = placebo tumor volume at time t
# [2] = system: REC-1/NK92MI MCL xenograft; test: Human REC-1/NK92MI mantle cell lymphoma xenograft model; format: in vivo, NOD/SCID mice; details: Compound 1 2.5 mg/kg p.o. BID, obinutuzumab 2 mg/kg i.p. QW
# Method: REC-1 cells were cultured in RPMI1640 complete medium supplemented with 10% (v/v) fetal bovine serum, and 100 µg/mL of penicillin and streptomycin. NK92MI/CD16V cell line, overexpressing CD16 and FcRγ chain, was established from parental cell line NK92MI. The cells were maintained in MEM alpha supplemented with 0.2 mM inositol; 0.1 mM 2-mercaptoethanol; 0.02 mM folic acid; 1×NEAA; adjust to a final concentration of 20% (v/v) fetal bovine serum and 100 µg/mL of penicillin and streptomycin. […]
# (§5) On day 3 after inoculation, animals were randomly divided into four groups with 12 mice per group. […] Treatments were administered in a volume of 10 mL/kg body weight, assessed immediately before dosing and the volume dosed was adjusted accordingly. […] After implantation, primary tumor volume was measured in two dimensions using a calliper.
# (§6) Individual body weight was recorded twice weekly, with mice being monitored daily for clinical signs of toxicity for the duration of the study. […]
# Tumor volume was calculated using the formula: V = 0.5 × (a × b^2) where a and b are the long and short diameters of the tumor, respectively. Tumor growth inhibition (TGI) was calculated using the following formula: […]
# [3] = system: REC-1 MCL xenograft; test: Human REC-1 MCL xenograft model; format: in vivo, mice; details: for tumor growth / anti-tumor effect (in words): Compound 1 7.5 mg/kg BID, Ibrutinib 25 mg/kg BID, rituximab 200 µg/dose i.p. Q4D; for Tumor growth inhibition (TGI): Compound 1 7.5 mg/kg p.o. BID, Ibrutinib 25 mg/kg p.o. BID
# Method: as §1, with “REC-1” for “TMD-8 DLBCL”, “REC-1.” for “TMD-8 cells.”, “REC-1” for “TMD-8”
# On day 9 after inoculation, animals were randomly divided into 6 groups with 7 mice per group. […] After implantation, primary tumor volume was measured in two dimensions using a calliper.
# as §2, with “Individual body weight was recorded twice weekly, with mice being monitored daily for clinical signs of toxicity for the duration of the study. Mice” for “Mice”
# as §3, §4
# [4] = system: A431 epidermoid carcinoma allogeneic model (A431 cells and human PBMCs); test: Human A431 epidermoid carcinoma allogeneic model (Compound 1 and pembrolizumab); format: in vivo, NOD/SCID mice; details: Compound 1 15 mg/kg p.o. BID; pembrolizumab 10 mg/kg i.p. QW
# Method: (§7) On the day of implantation, human peripheral blood mononuclear cells (PBMCs) were isolated from 150 mL blood donated by a healthy volunteer. Briefly, peripheral blood was collected into vacuum blood collection tubes containing sodium heparin. PBMCs were separated by density gradient centrifugation using Histopaque-1077 and washed one time by Dulbecco’s Phosphate Buffered Saline (DPBS). The cell pellet was suspended with DPBS at appropriate volume to give a final concentration of 5× 10^7 cells/mL and placed on ice prior to inoculation.
# (§8) A431 cells were cultured in DMEM complete medium supplemented with 10% (v/v) fetal bovine serum, and 100 µg/mL of penicillin and streptomycin. On the day of implantation, culture medium was replaced with fresh medium. […]
# as §5, with “Starting from” for “On”, “0” for “3”, “after cell” for “after”, “10-11” for “12”
# as §6
# (§9) Tumor volume was calculated using the formula: V = 0.5 × (a × b^2) where a and b are the long and short diameters of the tumor, respectively.
# [5] = system: obinutuzumab-induced ADCC (IFN-γ secretion); test: Obinutuzumab-induced ADCC assessed by IFN-γ secretion in co-culture of NK92MI cells and Mino cells; format: cell-based, human; details: various concentrations
# Method: Mino cells were cultured in RPMI1640 complete medium supplemented with 10% (v/v) fetal bovine serum, and 100 µg/mLof penicillin and streptomycin. NK92MI/CD16V cell line, overexpressing CD16 and FcRγ chain, was established from parental cell line NK92MI. The cells were maintained in MEM alpha supplemented with 0.2 mM inositol; 0.1 mM 2-mercaptoethanol; 0.02 mM folic acid; 1 ×NEAA; adjust to a final concentration of 20% (v/v) fetal bovine serum and 100 µg/mL of penicillin and streptomycin.
# 0130] Mino cells (2×10^4cells/well) as the target cells (T) were plated into 96-well plate in triplicates. Cells were treated with vehicle or various concentrations of BTK inhibitors for one hour, followed by co-seeding with NK92MI cells (4×10^4cells/well, as the effector cells (E)) and co-treatment with vehicle or obinutuzumab (2 ug/well) for additional 24 hrs. After incubation, the cell-free supernatants of each well were collected, and the levels of human IFN-γ were measured using Human IFN-γ ELISA Ready-SET-Go kit.
# [6] = system: A431 epidermoid carcinoma allogeneic model (A431 cells and human PBMCs); test: Human A431 epidermoid carcinoma allogeneic model (Compound 1 and Mab 1); format: in vivo, NOD/SCID mice; details: Compound 1 15 mg/kg p.o. BID; Mab 1 10 mg/kg i.p. QW
# Method: as §7, with “1×10^8” for “5× 10^7”
# as §8
# as §5, with “Starting from” for “On”, “0” for “3”, “after cell” for “after”, “10-11” for “12”
# as §6, §9
# [7] = number of mice, 10 mice per group, Compound 1 7.5 mg/kg, obinutuzumab 10 mg/kg
Molecule,Tumor growth inhibition (TGI) [1] [%],"Objective responses: total (CR+PR) [1, 7]",tumor growth / anti-tumor effect (in words) [3],anti-tumor effect on tumor volume (in words) [4],Tumor growth inhibition (TGI) [3] [%],further results
obinutuzumab: anti-CD20 mAb (Gazyva®) [reference compound],61,2,–,–,–,"Objective responses: PR [1, 7]: 2; anti-tumor effect (in words) [2]: no anti-tumor effect"
rituximab: anti-CD20 mAb [reference compound],–,–,tumor growth was retarded,–,–,–
pembrolizumab: humanized monoclonal IgG4 antibody against PD-1 [reference compound],–,–,–,Neither Compound 1 nor pembrolizumab showed anti-tumor effect,–,–
"C=CC(=O)N1CCC([C@@H]2CCNc3c(C(N)=O)c(-c4ccc(Oc5ccccc5)cc4)nn32)CC1 [Compound 1, (S)-7-(1-acryloylpiperidin-4-yl)-2-(4-phenoxyphenyl)-4,5,6,7-tetra-hydropyrazolo[1,5-a]pyrimidine-3-carboxamide]",81,5,tumor growth was retarded,Neither Compound 1 nor pembrolizumab showed anti-tumor effect,85,"inhibition of IFN-γ secretion (in words) [5]: much less effective; Objective responses: CR [1, 7]: 1; anti-tumor effect on tumor volume (in words) [6]: no anti-tumor effect; Tumor growth inhibition (TGI) ([2]; day 23): 72%"
"C=CC(=O)N1CCC[C@@H](n2nc(-c3ccc(Oc4ccccc4)cc3)c3c(N)ncnc32)C1 [Ibrutinib, reference compound]",–,–,–,–,83,–
